Data as given in article doi:10.1101/153262v1 (biorxiv, 2017).

Biological target: T1, EiCsm6 (Enterococcus italicus, UniProt E6LHV2)
T1 sequence (E6LHV2 1-430): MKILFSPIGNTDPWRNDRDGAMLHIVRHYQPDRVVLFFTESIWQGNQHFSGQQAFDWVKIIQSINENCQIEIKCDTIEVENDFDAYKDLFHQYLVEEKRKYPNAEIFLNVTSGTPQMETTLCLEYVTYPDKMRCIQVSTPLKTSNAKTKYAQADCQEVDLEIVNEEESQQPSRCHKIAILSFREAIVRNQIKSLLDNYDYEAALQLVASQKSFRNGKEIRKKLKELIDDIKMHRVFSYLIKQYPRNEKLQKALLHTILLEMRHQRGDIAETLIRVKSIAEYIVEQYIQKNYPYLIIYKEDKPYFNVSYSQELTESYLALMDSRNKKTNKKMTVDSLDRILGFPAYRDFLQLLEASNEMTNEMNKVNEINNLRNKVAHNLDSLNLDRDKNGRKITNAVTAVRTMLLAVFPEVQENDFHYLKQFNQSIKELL
Experiment: fluorogenic RNase Alert cleavage, initial velocities, log
Format: biochemical
Conditions: activator; allosteric, CARF domain; 20 mM HEPES pH 7.5, 50 mM KCl

Compound Nc1ncnc2c1ncn2[C@@H]1O[C@H](CO)[C@@H](OP(=O)(O)OC[C@H]2O[C@@H](n3cnc4c(N)ncnc43)[C@H](O)[C@@H]2OP(=O)(O)OC[C@H]2O[C@@H](n3cnc4c(N)ncnc43)[C@H](O)[C@@H]2OP(=O)(O)OC[C@H]2O[C@@H](n3cnc4c(N)ncnc43)[C@H](O)[C@@H]2OP(=O)(O)OC[C@H]2O[C@@H](n3cnc4c(N)ncnc43)[C@H](O)[C@@H]2OP(=O)(O)OC[C@H]2O[C@@H](n3cnc4c(N)ncnc43)[C@@H]3OP(=O)(O)O[C@@H]32)[C@H]1O [A6>P, 2',3'-cyclic phosphate-terminated hexaadenylate] has an EC50 of ~60 nM.
